Legend:
women = settings: POP; desogestrel 0.075 mg, LNG 0.030 mg; cited from earlier work
[1] = tested on: healthy female subjects aged 18-35 years; assay: Return of ovulation in post-treatment cycle; format: in vivo, human; settings: FAS; 28-day post-treatment cycle
[2] = tested on: healthy female subjects aged 18-35 years; assay: Inhibition of ovulation / ovarian activity by Hoogland score, phase 2 clinical trial; format: in vivo, human; settings: 75 μg/day of levonorgestrel, vaginal
Procedure: The study consists of 4 phases: • Screening phase (minimum of 4 weeks and maximum of 8 weeks if washout cycle was needed). • Pre-treatment cycle (28 days) and randomization. • Treatment cycle consisting of 56 treatment days (2 cycles, 28 days per cycle). • Post-treatment cycle (28 days).
The inhibition of ovulation was determined by the calculation of the Hoogland Score, which combined the measurement of follicle size in mm by TVU and progesterone/estradiol serum concentration in nmol/L (in case an ovulation was suspected sonographically in TC1 or TC2, it was confirmed by blood progesterone levels and reflected by Landgren Score).
Primary endpoint analysis: the inhibition of ovulation (Yes, No), was analyzed through a logistic regression model to compare inhibition of ovulation across treatment groups in which BMI was included as covariate. Adjusted odds ratios (ORs) with their two-sided 95% CI were calculated. No hypothesis testing was performed.

[3] = oral administration; cited from earlier work

| Compound | Cycles with ovulation inhibited (women) | Participants with return of ovulation during post-treatment, % [1] | Ovulation inhibition [2] | Bioavailability [3] |
| --- | --- | --- | --- | --- |
| C#C[C@]1(O)CC[C@H]2[C@@H]3CCC4=CCCC[C@@H]4[C@H]3C(=C)C[C@@]21CC [desogestrel] | at least 98% | – | – | – |
| C#C[C@]1(O)CC[C@H]2[C@@H]3CCC4=CC(=O)CC[C@@H]4[C@H]3CC[C@@]21CC [levonorgestrel] | – | more than 80% | 100% | ~100% |
